# Patent US9457101B2, “Hydrogels for delivery of therapeutic polypeptides” (priority 2012, dated 2016)
# Like-named read-outs stand apart in the source and are kept apart here.
# Key:
# S. pyogenes = test: Bacterial growth inhibition by free proteins (A600); type: cell-based; settings: 10 μM, at 5 hours
# Description: Bacterial Growth Inhibition. Following digestion with thrombin as described above, GSH-agarose beads (GoldBio, St. Louis, Mo.) were used to separate GST from recombinant melittin. Synthetic melittin and GST-6xHis-melittin underwent a similar process without thrombin or being subjected to GSH-agarose treatment. Overnight cultures of S. pyogenes (ATCC, Manassas, Va., BAA-1633) cells were diluted in chemically defined medium were diluted to approximately 10^8 colony forming units (CFUs), corresponding to an absorbance at 600 nm (A600) of 0.1, and 150 μL distributed into 96-well, optical-bottom plates (Greiner BioOne, Frickenhausen, Germany) for treatment. GST-6xHis-melittin, recombinant melittin, or synthetic melittin (10 μM) were then added and the plate was incubated at 37° C. with shaking using a Biotek Synergy 2 plate reader (Winooski, Vt.). Absorbance (A600) measurements were obtained every ten minutes for 12 hours.
# U-87 MG cells = test: Tumor cell growth inhibition (MTS assay); type: cell-based; settings: 10 μM protein (thrombin 2 U), fusion without thrombin
# Description: Tumor Cell Growth Inhibition. All proteins were incubated with thrombin at 37° C. for two hours prior to cellular assays. Malignant glioma cells, U-87 MG, (ATCC, Manassas, Va., 3,000 cells/cm^2) were seeded in a 96 well plate together with appropriate treatments in 100 μL DMEM and 10% FCS (Sigma-Aldrich, St. Louis, Mo.). Treatments included a cell only control (untreated), thrombin (2 U), GST (10 μM), GST-6xHis-melittin (10 μM), GST-6xHis-melittin (10 μM) simultaneously with thrombin (2 U), or synthetic melittin (10 μM; GenScript RP20415, Sigma-Aldrich, St. Louis, Mo.). The cells with their respective treatments were incubated at 37° C. in 5% CO2 overnight, approximately 16 hours. The MTS assay (Promega, Madison, Wis., CellTitre96) was performed according to the manufacturer recommendation and incubated for two hours before reading absorbance at 495 nm on a Labsystems Multiskan plus plate reader (Thermo Scientific, Hanover Park, Ill.).
# [1] = test system: blood vessels per area formed in the hydrogel; test: Mouse angiogenesis model, subcutaneous hydrogel implants; type: in vivo, mice; settings: GM6001 intraperitoneally 0.1 mg/g once daily for two weeks
# Excerpt: PEGDA:GSH hydrogel is loaded with one or more GST-polypeptide fusions having a cleavage site for matrix metalloprotease-9 between GST and the polypeptide. Matrix metalloprotease-9 (MMP-9) recognizes the cleavage site having the amino acid sequence […] (SEQ ID NO:5). The loaded hydrogel is implanted in a mouse angiogenesis model to assess the bioactivity of the released polypeptides. Particularly, the polypeptides eGFP (i.e., Green Fluorescent Protein), mCherry (Red Fluorescent Protein), and a cell lytic polypeptide having the amino acid sequence […] (SEQ ID NO:3) are examined in this angiogenesis model.
# Specifically, mice are administered an intraperitoneal injection of ketamine and xylazine (100 mg/kg and 5 mg/kg, respectively), and an injection site is rubbed with 75% ethanol. Anesthesia is indicated by a toe pinch reflex test. All instruments are autoclaved prior to use and standard aseptic technique is followed for the procedure as detailed below. […]
# After 14 days, the inserted hydrogels are removed for whole mount immunostaining to determine the number of blood vessels per area formed in the hydrogel. […] Particularly, after one-hour of blocking, the hydrogel is incubated with anti-CD31 antibody overnight at 4 degrees Celsius to allow for fluorescence imaging of the endothelium formed about and/or within the hydrogel. […]
# thrombin = test: Kinetics of thrombin cleavage of GST-GFP (SDS-PAGE densitometry); type: biochemical; settings: for Km: read-out: Michaelis-Menten constant (Km) of thrombin to GST-GFP
# Description: Reaction kinetics were measured by semi-quantitative densitometry of SDS-PAGE gels. Reactions with equivalent concentrations of GST-GFP substrate and varying concentrations of thrombin (0.1, 0.33, 0.75, 1.5, and 3 μM) were incubated at 37° C. for varying amounts of time. In groups where cleavage from microspheres was reported, approximately 10,000 microspheres were used. Reactions were stopped by addition of Laemmli sample buffer (containing SDS) and stored at 4° C. until run on SDS-PAGE. All gels were run with known concentrations of BSA standards. Density measurements were made with NIH imageJ software with gel backgrounds normalized. Each thrombin concentration was run one time, except for […], which was ran in biological triplicate.
# [2] = below 1 mM GSH, after 6 days
# Description: Protein Release. GSH mediated release studies were carried out over 6 days. Protein release was measured from 10,000 to 20,000 microspheres into 500 μL PBS in the presence and absence of glutathione. Release was measured with three independent replicates per experimental group. […] Therefore, at each 24-hour time point, glutathione containing buffers were completely replaced. The buffer that was removed was frozen for later analysis. At the completion of the experiment, all frozen samples were thawed and 50 μL of each samples were diluted in PBS and read on a Quantech fluorometer.
# [3] = molecular target: glutathione s-transferase; settings: read-out: dissociation constant of glutathione from glutathione s-transferase; cited from earlier work
molecule,measurement,setting,value
"CC[C@H](C)[C@H](NC(=O)CN)C(=O)NCC(=O)N[C@@H](C)C(=O)N[C@H](C(=O)N[C@@H](CC(C)C)C(=O)N[C@@H](CCCCN)C(=O)N[C@H](C(=O)N[C@@H](CC(C)C)C(=O)N[C@H](C(=O)N[C@H](C(=O)NCC(=O)N[C@@H](CC(C)C)C(=O)N1CCC[C@H]1C(=O)N[C@@H](C)C(=O)N[C@@H](CC(C)C)C(=O)N[C@H](C(=O)N[C@@H](CO)C(=O)N[C@@H](Cc1c[nH]c2ccccc12)C(=O)N[C@H](C(=O)N[C@@H](CCCCN)C(=O)N[C@@H](CCCNC(=N)N)C(=O)N[C@@H](CCCCN)C(=O)N[C@@H](CCCNC(=N)N)C(=O)N[C@@H](CCC(N)=O)C(=O)N[C@@H](CCC(N)=O)C(N)=O)[C@@H](C)CC)[C@@H](C)CC)[C@@H](C)O)[C@@H](C)O)C(C)C)C(C)C [synthetic melittin, melittin, reference compound]",growth of S. pyogenes,S. pyogenes,almost completely inhibited the growth
same,survival of U-87 MG cells,U-87 MG cells,15%
CNC(=O)[C@H](Cc1c[nH]c2ccccc12)NC(=O)[C@@H](CC(=O)NO)CC(C)C [GM6001],vessel growth in the hydrogel,[1],limited vessel growth
GST-GFP,apparent Vmax of thrombin mediated release,thrombin,0.13 µg/min
same,Km,thrombin; GST-GFP in association with PEGDA-GSH microspheres,~0.3 µM
same,Km,thrombin; free GST-GFP,~0.18 µM
same,protein remaining associated with the particles,[2],more than 80%
recombinant melittin: melittin cleaved by thrombin from purified recombinant GST-6xHis-melittin,growth of S. pyogenes,S. pyogenes,almost completely inhibited the growth
N[C@@H](CCC(=O)N[C@@H](CS)C(=O)NCC(=O)O)C(=O)O [glutathione],Kd,[3],22 µM
